Test results from paper PMC11188305, “Reproductive and fetal toxicity studies of histamine H3 receptor antagonist DL76 used in mice to prevent maximal electroshock-induced seizure” (Frontiers in Pharmacology, 2024).

System: C57/B6 mouse embryos
Assay: Reproductive studies: maternal, fetal and gross/visceral malformation observations after treatment on GD-8 or GD-13
Format: in vivo
Details: for Placental weight, IUGR −1SD / Placental weight, IUGR −2SD: fraction (percentage); for Fetal weight, IUGR −1SD / Fetal weight, IUGR −2SD: fraction of fetuses (percentage); for Number of female embryos / Number of male embryos: number (percentage); for Exomphalos / Eye open / Kinky tail / Left/right kidney hypo/descended / Mandible hypoplasia / Maxilla hypoplasia / Microtia/low set microtia / Undescended testis: number of embryos (percentage); for Live fetus/litter / Resorption/litter: parentheses contain percentages
Method: Reproductive studies were conducted in adult female mice, averaging 30 gm in weight and 6 weeks in age ([Padmanabhan et al., 2006]; [Bastaki et al., 2018]). Following successful mating, indicated by vaginal plug observation, the plug-positive day was considered gestation day 0 (GD-0). DL76 was administered at various doses (7.5 mg/kg, 15 mg/kg, 30 mg/kg, and 60 mg/kg) through single i.p. injections and three 15 mg/kg injections in 1 day to mouse groups on GD-8 and GD-13 (Tables 1, 2). The control group was injected with normal saline. Appropriate formation of different organs occurs in specific periods of the development of the mouse. These two periods were selected because GD-8 is known to be a critical period for the induction of neural tube defects, craniofacial malformations, and the development of other organs, whereas on GD-13, the retina and other parts are being formed, and most other organs have been formed. The number of implantations, fetal deaths, and resorptions was recorded. Fetal and placental weights were documented separately. After blotting dry, the fetuses were weighed and fixed in 95% ethanol. The reproductive toxicological effects of DL76 were assessed by observing gross and visceral malformations, following [Sterz and Lehmann (1985)], [Abdulrazzaq et al. (1997)], [Padmanabhan et al. (2003)], and [Padmanabhan et al. (2006)].
Deformities of the embryos were identified according to a modified method of [Sterz and Lehmann (1985)], [Abdulrazzaq et al. (1997)], and [Bass et al. (2020)]. Accordingly, the embryos were removed from the 95% ethanol, and the lower part of the abdomen was cut using a razor blade. All organs were checked for abnormalities with a stereo dissecting microscope, and finally, the organs were removed by using forceps.
Statistical analyses employed SPSS 26.0 (IBM Middle East, Dubai, UAE). Data were presented as means ± SEM. […] Fetal abnormality data were presented as counts and percentages. Fisher’s exact test compared the percentages of abnormalities between the control group (saline) and the different dose groups. All tests were two-tailed, and significance was set at p < 0.05.

## CC(C)(C)c1ccc(OCCCN2CCCCC2)cc1 [DL76, 1-(3-(4-tert-butyl-phenoxy)propyl) piperidine]
7.5 mg/kg i.p. on GD-8
  Fetal weight/Litter (g) (Mean ± SD): 1.143 ± 0.107 g
  Fetuses/litter: 7.714 ± 1.890
  Placental weight/Litter (g) (mean ± SD): 0.109 ± 0.11 g
  Placental weight, IUGR −1SD: 0
  Placental weight, IUGR −2SD: 0
  Fetal weight, IUGR −1SD: 0
  Fetal weight, IUGR −2SD: 0
  Number of female embryos: 19 (43.2)
  Number of male embryos: 25 (56.8)
  Exomphalos: 0
  Eye open: 2 (4.5)
  Kinky tail: 0
  Left/right kidney hypo/descended: 1 (2.3)
  Mandible hypoplasia: 3 (6.8)
  Maxilla hypoplasia: 3 (6.8)
  Microtia/low set microtia: 2 (4.5)
  Undescended testis: 2 (4.5)
  Live fetus/litter: 6.289 (81.48)
  Resorption/litter: 1.429 (18.51)
7.5 mg/kg i.p. on GD-13
  Fetal weight Litter (g) (Mean ± SD): 1.018 ± 0.103 g
  Fetuses/litter: 8.000 ± 1.291
  Placental weight/Litter (g) (mean ± SD): 0.105 ± 0.011 g
  Placental weight, IUGR −2SD: 0
  Fetal weight, IUGR −2SD: 0
  Number of female embryos: 27 (54.0)
  Number of male embryos: 23 (46.0)
  Exomphalos: 0
  Eye open: 3 (6.0)
  Kinky tail: 0
  Left/right kidney hypo/descended: 2 (4.0)
  Mandible hypoplasia: 4 (8.0)
  Microtia/low set microtia: 2 (4.0)
  Undescended testis: 1 (2.0)
  Resorption/litter: 0.857 (10.71)
7.5 mg/kg i.p. on GD-13, * p < 0.05 vs control
  Maxilla hypoplasia: 4 (8.0)*
15 mg/kg i.p. on GD-8
  Fetal weight/Litter (g) (Mean ± SD): 0.993 ± 0.106 g
  Fetuses/litter: 7.167 ± 2.317
  Placental weight/Litter (g) (mean ± SD): 0.105 ± 0.009 g
  Placental weight, IUGR −1SD: 0
  Placental weight, IUGR −2SD: 0
  Fetal weight, IUGR −1SD: 0
  Number of female embryos: 20 (52.6)
  Number of male embryos: 18 (47.4)
  Exomphalos: 1 (2.6)
  Eye open: 3 (7.9)
  Kinky tail: 0
  Left/right kidney hypo/descended: 2 (5.3)
  Mandible hypoplasia: 3 (7.9)
  Maxilla hypoplasia: 1 (2.6)
  Microtia/low set microtia: 1 (2.6)
  Undescended testis: 0
  Live fetus/litter: 6.338 (88.37)
  Resorption/litter: 0.833 (11.62)
15 mg/kg i.p. on GD-13
  Fetal weight Litter (g) (Mean ± SD): 0.998 ± 0.063 g
  Fetuses/litter: 7.571 ± 1.272
  Placental weight/Litter (g) (mean ± SD): 0.113 ± 0.015 g
  Placental weight, IUGR −2SD: 0
  Fetal weight, IUGR −2SD: 0
  Number of female embryos: 18 (45.0)
  Number of male embryos: 22 (55.0)
  Exomphalos: 0
  Eye open: 2 (5.0)
  Kinky tail: 0
  Left/right kidney hypo/descended: 1 (2.5)
  Mandible hypoplasia: 4 (10.0)
  Maxilla hypoplasia: 3 (7.5)
  Microtia/low set microtia: 2 (5.0)
  Undescended testis: 1 (2.5)
  Live fetus/litter: 5.714 (75.47)
  Resorption/litter: 1.857 (24.53)
30 mg/kg i.p. on GD-8
  Fetal weight/Litter (g) (Mean ± SD): 1.004 ± 0.047 g
  Fetuses/litter: 8.429 ± 0.787
  Placental weight/Litter (g) (mean ± SD): 0.097 ± 0.019 g
  Fetal weight, IUGR −2SD: 0
  Number of female embryos: 27 (52.9)
  Number of male embryos: 24 (47.1)
  Exomphalos: 1 (2.0)
  Eye open: 2 (3.9)
  Kinky tail: 1 (2.0)
  Mandible hypoplasia: 3 (5.9)
  Microtia/low set microtia: 2 (3.9)
  Undescended testis: 0
  Live fetus/litter: 7.286 (86.44)
  Resorption/litter: 1.143 (13.56)
30 mg/kg i.p. on GD-8, * p < 0.05 vs control
  Maxilla hypoplasia: 2 (3.9)*
30 mg/kg i.p. on GD-13
  Fetal weight Litter (g) (Mean ± SD): 1.069 ± 0.082 g
  Fetuses/litter: 7.000 ± 1.155
  Placental weight/Litter (g) (mean ± SD): 0.103 ± 0.006 g
  Placental weight, IUGR −2SD: 0
  Fetal weight, IUGR −2SD: 0
